Reference: ChEMBL document CHEMBL4725364, “Discovery of a Copper-Based Mcl-1 Inhibitor as an Effective Antitumor Agent” (J Med Chem, 2020)

How the values were obtained:
[1] = target: T1, Induced myeloid leukemia cell differentiation protein Mcl-1 (Homo sapiens, UniProt Q07820); assay: Displacement of Flu-BID/FAM-BID from His-tagged Mcl-1 (171 to 327 residues) (unknown origin) expressed in Escherichia coli BL21 (DE3) cells incubated for 3 hrs by fluorescence polarization assay
[2] = target: T1, Induced myeloid leukemia cell differentiation protein Mcl-1; assay: Inhibition of biotinylated Bim peptide (81 to 106 residues) binding to His-tagged Mcl-1 (171 to 327 residues) (unknown origin) expressed in Escherichia coli BL21 (DE3) cells preincubated for 1 hr followed by biotinylated Bim peptide addition measured after 2 hrs by ELISA
[3] = target: T1, Induced myeloid leukemia cell differentiation protein Mcl-1; assay: Inhibition of N-terminal biotin-labeled BIM BH3 peptide (141 to 166 residues) binding to His-tagged Mcl-1 (171 to 327 residues) (unknown origin) expressed in Escherichia coli BL21 (DE3) cells incubated for >=30 mins by […]
[4] = Cytotoxicity against human MOLP8 cells after 24 hrs by MTT assay; format: functional, cell-based; details: MOLP-8, 24 h
[5] = tested on: L-363; assay: Cytotoxicity against human L-363 cells after 24 hrs by MTT assay; format: functional, cell-based; details: L-363, 24 h
[6] = tested on: K562; assay: Cytotoxicity against human K562 cells after 24 hrs by MTT assay; format: functional, cell-based; details: K562, 24 h
[7] = tested on: NCI-H929; assay: Cytotoxicity against human NCI-H929 cells after 24 hrs by MTT assay; format: functional, cell-based; details: NCI-H929, 24 h
[8] = tested on: LP-1; assay: Cytotoxicity against human LP-1 cells after 24 hrs by MTT assay; format: functional, cell-based; details: LP-1, 24 h
[9] = tested on: MM1.S; assay: Cytotoxicity against human MM1.S cells after 24 hrs by MTT assay; format: functional, cell-based
[10] = tested on: KMS-12-PE; assay: Cytotoxicity against human KMS-12-PE cells after 24 hrs by MTT assay; format: functional, cell-based

T1 sequence (Q07820 whole entry, the tested form may be a part): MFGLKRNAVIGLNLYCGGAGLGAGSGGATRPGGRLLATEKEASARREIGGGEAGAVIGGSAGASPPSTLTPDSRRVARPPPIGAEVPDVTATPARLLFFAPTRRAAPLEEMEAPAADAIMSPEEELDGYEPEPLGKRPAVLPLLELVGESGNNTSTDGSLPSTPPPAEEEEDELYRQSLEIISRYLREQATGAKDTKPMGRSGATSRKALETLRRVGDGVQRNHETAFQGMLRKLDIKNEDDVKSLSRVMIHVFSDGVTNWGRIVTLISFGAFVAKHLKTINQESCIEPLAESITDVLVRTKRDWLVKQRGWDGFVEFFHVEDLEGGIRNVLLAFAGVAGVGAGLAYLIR

SMILES: c1ccc(CCn2c3ccccc3c3ccnc(-c4ccccn4)c32)cc1
- Ki [1]: 3.13 µM
- IC50 [2]: > 10 µM
- IC50 [3]: 8.81 µM
- IC50 [4]: 21.4 µM
- IC50 [5]: 24.9 µM
- IC50 [6]: 17.9 µM
- IC50 [7]: 14.3 µM
- IC50 [8]: 18.8 µM
- IC50 [9]: > 40 µM
- IC50 [10]: > 40 µM

SMILES: Cc1ccc(Cn2c3ccccc3c3ccnc(-c4ccccn4)c32)cc1
- Ki [1]: 4.93 µM
- IC50 [2]: > 10 µM
- IC50 [3]: 9.08 µM
- IC50 [4]: 27.5 µM
- IC50 [5]: 33.5 µM
- IC50 [6]: 22.6 µM
- IC50 [7]: 17.9 µM
- IC50 [8]: 25.8 µM
- IC50 [9]: > 40 µM
- IC50 [10]: > 40 µM

SMILES: c1ccc(-c2nccc3c2[nH]c2ccccc23)nc1
- Ki [1]: > 10 µM
- IC50 [2]: > 10 µM
- IC50 [3]: > 10 µM
- IC50 [4]: > 40 µM
- IC50 [5]: > 40 µM
- IC50 [6]: > 40 µM
- IC50 [7]: > 40 µM
- IC50 [8]: > 40 µM
- IC50 [9]: > 40 µM
- IC50 [10]: > 40 µM

SMILES: Fc1ccc(Cn2c3ccccc3c3ccnc(-c4ccccn4)c32)cc1
- Ki [1]: 5.52 µM
- IC50 [2]: > 10 µM
- IC50 [3]: > 10 µM
- IC50 [4]: 34.7 µM
- IC50 [5]: > 40 µM
- IC50 [6]: 28.9 µM
- IC50 [7]: 25.4 µM
- IC50 [8]: 33.6 µM
- IC50 [9]: > 40 µM
- IC50 [10]: > 40 µM

SMILES: c1ccc(-c2nccc3c4ccccc4n(CC4CC4)c23)nc1
- Ki [1]: > 10 µM
- IC50 [2]: > 10 µM
- IC50 [3]: > 10 µM
- IC50 [4]: > 40 µM
- IC50 [5]: > 40 µM
- IC50 [6]: > 40 µM
- IC50 [7]: > 40 µM
- IC50 [8]: > 40 µM
- IC50 [9]: > 40 µM
- IC50 [10]: > 40 µM

SMILES: c1ccc(Cn2c3ccccc3c3ccnc(-c4ccccn4)c32)cc1
- Ki [1]: 6.13 µM
- IC50 [2]: > 10 µM
- IC50 [3]: > 10 µM
- IC50 [4]: > 40 µM
- IC50 [5]: > 40 µM
- IC50 [6]: 32.8 µM
- IC50 [7]: 37.4 µM
- IC50 [8]: > 40 µM
- IC50 [9]: > 40 µM
- IC50 [10]: > 40 µM

SMILES: CCOCCn1c2ccccc2c2ccnc(-c3ccccn3)c21
- Ki [1]: > 10 µM
- IC50 [2]: > 10 µM
- IC50 [3]: > 10 µM
- IC50 [4]: > 40 µM
- IC50 [5]: > 40 µM
- IC50 [6]: > 40 µM
- IC50 [7]: > 40 µM
- IC50 [8]: > 40 µM
- IC50 [9]: > 40 µM
- IC50 [10]: > 40 µM

SMILES: CCn1c2ccccc2c2ccnc(-c3ccccn3)c21
- Ki [1]: > 10 µM
- IC50 [2]: > 10 µM
- IC50 [3]: > 10 µM
- IC50 [4]: > 40 µM
- IC50 [5]: > 40 µM
- IC50 [6]: > 40 µM
- IC50 [7]: > 40 µM
- IC50 [8]: > 40 µM
- IC50 [9]: > 40 µM
- IC50 [10]: > 40 µM

SMILES: c1ccc(-c2nccc3c4ccccc4n(Cc4ccc5ccccc5c4)c23)nc1
- Ki [1]: 6.61 µM
- IC50 [2]: > 10 µM
- IC50 [3]: 8.52 µM
- IC50 [4]: > 40 µM
- IC50 [5]: > 40 µM
- IC50 [6]: > 40 µM
- IC50 [7]: > 40 µM
- IC50 [8]: > 40 µM
- IC50 [9]: > 40 µM
- IC50 [10]: > 40 µM

SMILES: c1ccc(COCCn2c3ccccc3c3ccnc(-c4ccccn4)c32)cc1
- Ki [1]: 7.88 µM
- IC50 [2]: > 10 µM
- IC50 [3]: > 10 µM
- IC50 [4]: > 40 µM
- IC50 [5]: > 40 µM
- IC50 [6]: > 40 µM
- IC50 [7]: > 40 µM
- IC50 [8]: > 40 µM
- IC50 [9]: > 40 µM
- IC50 [10]: > 40 µM

SMILES: Cc1nn(C)c(COc2ccc(N3CCN(S(=O)(=O)N(C)C)CC3)cc2)c1-c1cccc2c(CCCOc3cccc4ccccc34)c(C(=O)O)n(CCN3CCOCC3)c12
- Ki [1]: 0.0047 µM
- IC50 [2]: 0.0125 µM
- IC50 [3]: 0.0088 µM
- IC50 [4]: 9.7 µM
- IC50 [5]: 11.8 µM
- IC50 [6]: 13.9 µM
- IC50 [7]: 8.6 µM
- IC50 [8]: 10.6 µM
- IC50 [9]: > 40 µM
- IC50 [10]: > 40 µM

SMILES: c1ccc(OCCn2c3ccccc3c3ccnc(-c4ccccn4)c32)cc1
- Ki [1]: > 10 µM
- IC50 [2]: > 10 µM
- IC50 [3]: > 10 µM
- IC50 [4]: > 40 µM
- IC50 [5]: > 40 µM
- IC50 [6]: > 40 µM
- IC50 [7]: > 40 µM
- IC50 [8]: > 40 µM
- IC50 [9]: > 40 µM
- IC50 [10]: > 40 µM
